Experimental data reported in paper PMC6199309, “A therapeutic approach to pantothenate kinase associated neurodegeneration” (Nature Communications, 2018).
“Also recorded” adds a separate entry of the source.

Key:
Assay type in all cases: binding
[1] = target: T1, ABL1(Q252H)-phosphorylated (Homo sapiens, UniProt P00519, Q252H); experiment: KINOMEscan; settings: read-out: %Ctrl @ 10000nM
T1 construct: purchased DiscoverX KINOMEscan

[2] = target: T2, ABL1(T315I)-nonphosphorylated (Homo sapiens, UniProt P00519, T315I); experiment: KINOMEscan; settings: read-out: %Ctrl @ 10000nM
T2 construct: purchased DiscoverX KINOMEscan

AMPK-alpha2 = target: T3, AMPK-alpha2 (Homo sapiens, UniProt P54646); experiment: KINOMEscan; settings: read-out: %Ctrl @ 10000nM
T3 construct: purchased DiscoverX KINOMEscan
T3 sequence (P54646 whole entry): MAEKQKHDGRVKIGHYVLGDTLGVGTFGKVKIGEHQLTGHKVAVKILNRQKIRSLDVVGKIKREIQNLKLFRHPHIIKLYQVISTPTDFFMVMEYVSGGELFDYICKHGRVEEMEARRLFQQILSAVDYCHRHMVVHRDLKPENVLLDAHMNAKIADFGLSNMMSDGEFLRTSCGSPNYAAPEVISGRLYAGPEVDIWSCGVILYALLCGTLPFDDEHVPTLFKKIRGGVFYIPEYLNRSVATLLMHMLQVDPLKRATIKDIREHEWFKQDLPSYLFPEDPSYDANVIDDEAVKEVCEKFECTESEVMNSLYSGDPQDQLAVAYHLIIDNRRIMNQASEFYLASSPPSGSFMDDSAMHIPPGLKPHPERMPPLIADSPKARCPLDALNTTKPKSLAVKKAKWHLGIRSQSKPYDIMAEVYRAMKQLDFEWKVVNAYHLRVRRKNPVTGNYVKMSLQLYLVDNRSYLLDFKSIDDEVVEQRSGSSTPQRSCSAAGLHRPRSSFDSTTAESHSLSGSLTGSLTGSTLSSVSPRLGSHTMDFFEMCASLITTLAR

BMX = target: T4, BMX (Homo sapiens, UniProt P51813); experiment: KINOMEscan; settings: read-out: %Ctrl @ 10000nM
T4 construct: purchased DiscoverX KINOMEscan

CDK4 = target: T5, CDK4 (Homo sapiens, UniProt P11802); experiment: KINOMEscan; settings: read-out: %Ctrl @ 10000nM
T5 construct: purchased DiscoverX KINOMEscan

DAPK2 = target: T6, DAPK2 (Homo sapiens, UniProt Q9UIK4); experiment: KINOMEscan; settings: read-out: %Ctrl @ 10000nM
T6 construct: purchased DiscoverX KINOMEscan

DYRK1B = target: T7, DYRK1B (Homo sapiens, UniProt Q9Y463); experiment: KINOMEscan; settings: read-out: %Ctrl @ 10000nM
T7 construct: purchased DiscoverX KINOMEscan
T7 sequence (Q9Y463 whole entry): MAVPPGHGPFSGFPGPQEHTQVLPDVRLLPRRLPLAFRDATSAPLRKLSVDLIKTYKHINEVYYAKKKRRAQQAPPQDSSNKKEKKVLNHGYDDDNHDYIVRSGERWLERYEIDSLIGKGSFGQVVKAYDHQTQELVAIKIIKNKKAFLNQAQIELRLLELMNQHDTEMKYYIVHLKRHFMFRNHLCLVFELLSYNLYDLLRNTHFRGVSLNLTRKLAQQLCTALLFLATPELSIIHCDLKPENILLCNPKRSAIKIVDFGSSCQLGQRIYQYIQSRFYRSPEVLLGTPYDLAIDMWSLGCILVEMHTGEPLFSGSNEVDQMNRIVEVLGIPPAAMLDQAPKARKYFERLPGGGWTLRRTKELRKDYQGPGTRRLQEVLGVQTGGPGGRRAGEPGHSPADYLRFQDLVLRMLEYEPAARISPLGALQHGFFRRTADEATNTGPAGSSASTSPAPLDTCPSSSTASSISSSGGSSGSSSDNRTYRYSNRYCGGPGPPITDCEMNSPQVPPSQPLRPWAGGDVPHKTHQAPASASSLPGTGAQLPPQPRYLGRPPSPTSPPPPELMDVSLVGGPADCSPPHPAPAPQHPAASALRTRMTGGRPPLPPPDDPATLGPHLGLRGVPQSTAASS

[3] = target: T8, EGFR(L747-E749del, A750P) (Homo sapiens, UniProt P00533, A750P/DEL747-749); experiment: KINOMEscan; settings: read-out: %Ctrl @ 10000nM
T8 construct: purchased DiscoverX KINOMEscan

EGFR(S752-I759del) = target: T9, EGFR(S752-I759del) (Homo sapiens, UniProt P00533, DEL752-759); experiment: KINOMEscan; settings: read-out: %Ctrl @ 10000nM
T9 construct: purchased DiscoverX KINOMEscan

EGFR(T790M) = target: T10, EGFR(T790M) (Homo sapiens, UniProt P00533, T790M); experiment: KINOMEscan; settings: read-out: %Ctrl @ 10000nM
T10 construct: purchased DiscoverX KINOMEscan

EPHB3 = target: T11, EPHB3 (Homo sapiens, UniProt P54753); experiment: KINOMEscan; settings: read-out: %Ctrl @ 10000nM
T11 construct: purchased DiscoverX KINOMEscan

ERBB4 = target: T12, ERBB4 (Homo sapiens, UniProt Q15303); experiment: KINOMEscan; settings: read-out: %Ctrl @ 10000nM
T12 construct: purchased DiscoverX KINOMEscan

ERK3 = target: T13, ERK3 (Homo sapiens, UniProt Q16659); experiment: KINOMEscan; settings: read-out: %Ctrl @ 10000nM
T13 construct: purchased DiscoverX KINOMEscan

FLT3(D835H) = target: T14, FLT3(D835H) (Homo sapiens, UniProt P36888, D835H); experiment: KINOMEscan; settings: read-out: %Ctrl @ 10000nM
T14 construct: purchased DiscoverX KINOMEscan

GRK3 = target: T15, GRK3 (Homo sapiens, UniProt P35626); experiment: KINOMEscan; settings: read-out: %Ctrl @ 10000nM
T15 construct: DNA tag for qPCR (T7 phage fusion or DNA label); purchased DiscoverX KdELECT; host or cells: E. coli BL21-derived (T7 phage) or HEK-293

HASPIN = target: T16, HASPIN (Homo sapiens, UniProt Q8TF76); experiment: KINOMEscan; settings: read-out: %Ctrl @ 10000nM
T16 construct: purchased DiscoverX KINOMEscan

[4] = target: T17, JAK2(JH1domain-catalytic) (Homo sapiens, UniProt O60674); experiment: KINOMEscan; settings: read-out: %Ctrl @ 10000nM
T17 construct: JAK2(JH1domain-catalytic); purchased DiscoverX KINOMEscan

JNK1 = target: T18, JNK1 (Homo sapiens, UniProt P45983); experiment: KINOMEscan; settings: read-out: %Ctrl @ 10000nM
T18 construct: purchased DiscoverX KINOMEscan

KIT(V559D,V654A) = target: T19, KIT(V559D,V654A) (Homo sapiens, UniProt P10721, V559D/V654A); experiment: KINOMEscan; settings: read-out: %Ctrl @ 10000nM
T19 construct: purchased DiscoverX KINOMEscan

LKB1 = target: T20, LKB1 (Homo sapiens, UniProt Q15831); experiment: KINOMEscan; settings: read-out: %Ctrl @ 10000nM
T20 construct: purchased DiscoverX KINOMEscan

MAP3K4 = target: T21, MAP3K4 (Homo sapiens, UniProt Q9Y6R4); experiment: KINOMEscan; settings: read-out: %Ctrl @ 10000nM
T21 construct: purchased DiscoverX KINOMEscan

MEK3 = target: T22, MEK3 (Homo sapiens, UniProt P46734); experiment: KINOMEscan; settings: read-out: %Ctrl @ 10000nM
T22 construct: purchased DiscoverX KINOMEscan

MRCKB = target: T23, MRCKB (Homo sapiens, UniProt Q9Y5S2); experiment: KINOMEscan; settings: read-out: %Ctrl @ 10000nM
T23 construct: purchased DiscoverX KINOMEscan

MTOR = target: T24, MTOR (Homo sapiens, UniProt P42345); experiment: KINOMEscan; settings: read-out: %Ctrl @ 10000nM
T24 construct: purchased DiscoverX KINOMEscan

MYLK4 = target: T25, MYLK4 (Homo sapiens, UniProt Q86YV6); experiment: KINOMEscan; settings: read-out: %Ctrl @ 10000nM
T25 construct: purchased DiscoverX KINOMEscan
T25 sequence (Q86YV6 whole entry): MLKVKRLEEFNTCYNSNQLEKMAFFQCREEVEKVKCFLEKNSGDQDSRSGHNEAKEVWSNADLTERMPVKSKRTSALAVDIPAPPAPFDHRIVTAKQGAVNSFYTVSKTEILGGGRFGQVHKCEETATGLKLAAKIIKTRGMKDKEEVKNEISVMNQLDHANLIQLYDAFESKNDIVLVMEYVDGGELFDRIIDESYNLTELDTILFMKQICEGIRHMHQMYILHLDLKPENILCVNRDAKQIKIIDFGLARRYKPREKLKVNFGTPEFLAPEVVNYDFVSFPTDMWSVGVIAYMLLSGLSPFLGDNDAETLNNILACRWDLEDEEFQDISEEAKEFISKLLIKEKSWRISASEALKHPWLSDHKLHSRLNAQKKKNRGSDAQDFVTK

NEK3 = target: T26, NEK3 (Homo sapiens, UniProt P51956); experiment: KINOMEscan; settings: read-out: %Ctrl @ 10000nM
T26 construct: purchased DiscoverX KINOMEscan

PAK4 = target: T27, PAK4 (Homo sapiens, UniProt O96013); experiment: KINOMEscan; settings: read-out: %Ctrl @ 10000nM
T27 construct: purchased DiscoverX KINOMEscan

PCTK2 = target: T28, PCTK2 (Homo sapiens, UniProt Q00537); experiment: KINOMEscan; settings: read-out: %Ctrl @ 10000nM
T28 construct: purchased DiscoverX KINOMEscan
T28 sequence (Q00537 whole entry): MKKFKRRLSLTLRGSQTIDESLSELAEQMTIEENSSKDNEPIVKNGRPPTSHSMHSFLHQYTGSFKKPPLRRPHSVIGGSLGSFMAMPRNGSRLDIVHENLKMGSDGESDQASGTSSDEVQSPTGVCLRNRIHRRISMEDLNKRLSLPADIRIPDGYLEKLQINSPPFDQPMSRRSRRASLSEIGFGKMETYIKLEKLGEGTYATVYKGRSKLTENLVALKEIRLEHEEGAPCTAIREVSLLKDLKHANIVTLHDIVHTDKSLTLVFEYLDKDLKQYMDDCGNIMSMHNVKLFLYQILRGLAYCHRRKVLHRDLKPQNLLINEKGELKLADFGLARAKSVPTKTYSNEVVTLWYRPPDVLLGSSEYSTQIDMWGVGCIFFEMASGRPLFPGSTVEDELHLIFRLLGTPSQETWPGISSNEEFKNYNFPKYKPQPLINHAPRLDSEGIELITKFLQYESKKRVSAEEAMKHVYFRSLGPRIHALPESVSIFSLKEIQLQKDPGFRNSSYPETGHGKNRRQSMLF

PIK3C2B = target: T29, PIK3C2B (Homo sapiens, UniProt O00750); experiment: KINOMEscan; settings: read-out: %Ctrl @ 10000nM
T29 construct: purchased DiscoverX KINOMEscan

PIP5K2C = target: T30, PIP5K2C (Homo sapiens, UniProt Q8TBX8); experiment: KINOMEscan; settings: read-out: %Ctrl @ 10000nM
T30 construct: purchased DiscoverX KINOMEscan

PKAC-beta = target: T31, PKAC-beta (Homo sapiens, UniProt P22694); experiment: KINOMEscan; settings: read-out: %Ctrl @ 10000nM
T31 construct: purchased DiscoverX KINOMEscan

PLK1 = target: T32, PLK1 (Homo sapiens, UniProt P53350); experiment: KINOMEscan; settings: read-out: %Ctrl @ 10000nM
T32 construct: purchased DiscoverX KINOMEscan
T32 sequence (P53350 whole entry): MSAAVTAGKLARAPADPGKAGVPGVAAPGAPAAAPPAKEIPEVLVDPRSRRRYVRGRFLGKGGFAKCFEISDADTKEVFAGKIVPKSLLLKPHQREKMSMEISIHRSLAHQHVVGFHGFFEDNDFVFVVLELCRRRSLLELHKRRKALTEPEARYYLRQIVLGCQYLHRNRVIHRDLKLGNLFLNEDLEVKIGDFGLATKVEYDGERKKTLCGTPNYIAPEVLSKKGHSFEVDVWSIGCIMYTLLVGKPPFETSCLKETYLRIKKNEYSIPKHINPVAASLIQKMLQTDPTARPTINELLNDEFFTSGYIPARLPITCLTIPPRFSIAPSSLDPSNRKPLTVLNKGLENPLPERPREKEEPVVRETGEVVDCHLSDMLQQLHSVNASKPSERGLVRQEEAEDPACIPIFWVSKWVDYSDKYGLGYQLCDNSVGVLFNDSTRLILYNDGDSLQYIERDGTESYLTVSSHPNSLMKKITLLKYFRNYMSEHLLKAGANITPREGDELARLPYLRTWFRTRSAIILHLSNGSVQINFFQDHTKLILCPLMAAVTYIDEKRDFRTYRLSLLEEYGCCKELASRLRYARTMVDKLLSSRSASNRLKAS

RET(V804M) = target: T33, RET(V804M) (Homo sapiens, UniProt P07949, V804M); experiment: KINOMEscan; settings: read-out: %Ctrl @ 10000nM
T33 construct: purchased DiscoverX KINOMEscan

RIPK2 = target: T34, RIPK2 (Homo sapiens, UniProt O43353); experiment: KINOMEscan; settings: read-out: %Ctrl @ 10000nM
T34 construct: purchased DiscoverX KINOMEscan

SLK = target: T35, SLK (Homo sapiens, UniProt Q9H2G2); experiment: KINOMEscan; settings: read-out: %Ctrl @ 10000nM
T35 construct: purchased DiscoverX KINOMEscan

TIE1 = target: T36, TIE1 (Homo sapiens, UniProt P35590); experiment: KINOMEscan; settings: read-out: %Ctrl @ 10000nM
T36 construct: purchased DiscoverX KINOMEscan

ULK1 = target: T37, ULK1 (Homo sapiens, UniProt O75385); experiment: KINOMEscan; settings: read-out: %Ctrl @ 10000nM
T37 construct: DNA label for qPCR (T7 phage fusion or DNA tag); purchased DiscoverX scanMAX; host or cells: E. coli BL21-derived (T7 phage) or HEK-293

WNK1 = target: T38, WNK1 (Homo sapiens, UniProt Q9H4A3); experiment: KINOMEscan; settings: read-out: %Ctrl @ 10000nM
T38 construct: DNA label for qPCR (T7 phage fusion or DNA tag); purchased DiscoverX scanMAX; host or cells: E. coli BL21-derived (T7 phage) or HEK-293

WNK2 = target: T39, WNK2 (Homo sapiens, UniProt Q9Y3S1); experiment: KINOMEscan; settings: read-out: %Ctrl @ 10000nM
T39 construct: DNA label for qPCR (T7 phage fusion or DNA tag); purchased DiscoverX scanMAX; host or cells: E. coli BL21-derived (T7 phage) or HEK-293
T39 sequence (Q9Y3S1 whole entry, the tested form may be a part): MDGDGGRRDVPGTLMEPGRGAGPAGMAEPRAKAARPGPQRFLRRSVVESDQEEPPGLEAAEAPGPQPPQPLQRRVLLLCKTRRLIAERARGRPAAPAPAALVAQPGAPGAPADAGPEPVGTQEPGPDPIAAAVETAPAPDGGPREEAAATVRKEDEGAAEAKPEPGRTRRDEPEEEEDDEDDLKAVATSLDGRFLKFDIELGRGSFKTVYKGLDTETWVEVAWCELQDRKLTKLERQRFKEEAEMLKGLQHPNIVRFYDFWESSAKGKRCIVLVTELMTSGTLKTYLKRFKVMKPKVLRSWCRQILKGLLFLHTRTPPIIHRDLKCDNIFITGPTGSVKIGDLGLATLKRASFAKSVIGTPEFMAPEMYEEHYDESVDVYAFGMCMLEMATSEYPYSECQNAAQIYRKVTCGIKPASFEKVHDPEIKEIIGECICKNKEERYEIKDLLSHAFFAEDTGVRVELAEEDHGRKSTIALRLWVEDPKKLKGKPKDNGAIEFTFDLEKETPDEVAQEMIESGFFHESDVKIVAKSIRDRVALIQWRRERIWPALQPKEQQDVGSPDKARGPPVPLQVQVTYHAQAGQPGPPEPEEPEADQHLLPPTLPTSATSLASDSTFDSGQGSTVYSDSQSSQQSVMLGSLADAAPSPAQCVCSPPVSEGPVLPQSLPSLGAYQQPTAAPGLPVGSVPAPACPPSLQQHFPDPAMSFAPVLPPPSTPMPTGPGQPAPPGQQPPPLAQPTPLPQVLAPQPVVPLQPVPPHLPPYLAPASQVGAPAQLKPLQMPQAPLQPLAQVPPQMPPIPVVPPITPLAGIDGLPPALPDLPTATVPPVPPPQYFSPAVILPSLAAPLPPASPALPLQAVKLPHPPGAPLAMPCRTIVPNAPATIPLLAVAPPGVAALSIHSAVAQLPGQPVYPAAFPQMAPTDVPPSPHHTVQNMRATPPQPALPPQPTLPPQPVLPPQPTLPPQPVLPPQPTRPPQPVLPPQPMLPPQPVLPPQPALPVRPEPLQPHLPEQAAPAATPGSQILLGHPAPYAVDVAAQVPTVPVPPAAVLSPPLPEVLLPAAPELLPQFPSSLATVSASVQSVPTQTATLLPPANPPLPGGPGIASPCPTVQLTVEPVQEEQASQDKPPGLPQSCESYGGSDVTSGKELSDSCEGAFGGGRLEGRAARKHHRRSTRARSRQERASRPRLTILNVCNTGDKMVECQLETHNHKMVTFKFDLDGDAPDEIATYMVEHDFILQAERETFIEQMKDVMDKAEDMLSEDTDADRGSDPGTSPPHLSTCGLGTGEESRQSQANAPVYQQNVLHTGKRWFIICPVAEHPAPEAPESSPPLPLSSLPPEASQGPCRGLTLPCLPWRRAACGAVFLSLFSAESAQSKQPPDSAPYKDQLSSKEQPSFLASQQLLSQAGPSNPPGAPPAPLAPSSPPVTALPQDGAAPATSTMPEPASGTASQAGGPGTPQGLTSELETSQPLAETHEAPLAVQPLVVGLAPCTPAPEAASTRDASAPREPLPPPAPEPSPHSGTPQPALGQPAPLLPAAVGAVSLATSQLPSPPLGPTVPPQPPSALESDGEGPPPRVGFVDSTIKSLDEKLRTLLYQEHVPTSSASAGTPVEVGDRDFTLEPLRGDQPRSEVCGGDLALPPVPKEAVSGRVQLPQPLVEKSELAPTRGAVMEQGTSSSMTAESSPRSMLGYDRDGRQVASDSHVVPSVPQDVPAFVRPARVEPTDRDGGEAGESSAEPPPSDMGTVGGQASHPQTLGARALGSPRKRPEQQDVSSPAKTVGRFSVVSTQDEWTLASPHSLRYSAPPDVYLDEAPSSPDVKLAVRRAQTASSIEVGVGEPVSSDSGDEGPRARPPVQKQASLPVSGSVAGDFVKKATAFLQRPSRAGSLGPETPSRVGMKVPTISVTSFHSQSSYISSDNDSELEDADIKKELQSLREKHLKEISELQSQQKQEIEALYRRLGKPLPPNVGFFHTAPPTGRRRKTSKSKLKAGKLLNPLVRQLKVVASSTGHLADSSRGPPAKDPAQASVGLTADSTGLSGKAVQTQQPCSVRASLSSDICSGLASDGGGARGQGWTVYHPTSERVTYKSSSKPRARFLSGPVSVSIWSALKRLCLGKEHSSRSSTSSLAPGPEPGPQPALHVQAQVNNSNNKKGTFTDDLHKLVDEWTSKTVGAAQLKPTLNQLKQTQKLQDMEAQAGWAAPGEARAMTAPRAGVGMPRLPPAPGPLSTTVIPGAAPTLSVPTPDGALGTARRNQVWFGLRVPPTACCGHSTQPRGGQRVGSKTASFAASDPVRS

468 human kinases = experiment: KINOMEscan scanMAX panel
[5] = 10000 nM, 403 non-mutant kinases

CC(C)c1ccc(CC(=O)N2CCN(c3ccc(C#N)nn3)CC2)cc1 [PZ-2891, 6-(4-(2-(4-isopropylphenyl)acetyl)piperazin-1-yl)pyridazine-3-carbonitrile]
remaining binding at 10 µM [1]: 74%
remaining binding at 10 µM [2]: 63%
remaining binding at 10 µM (AMPK-alpha2): 100%
remaining binding at 10 µM (BMX): 100%
remaining binding at 10 µM (CDK4): 99%
remaining binding at 10 µM (DAPK2): 95%
remaining binding at 10 µM (DYRK1B): 66%
remaining binding at 10 µM [3]: 72%
remaining binding at 10 µM (EGFR(S752-I759del)): 100%
remaining binding at 10 µM (EGFR(T790M)): 78%
remaining binding at 10 µM (EPHB3): 92%
remaining binding at 10 µM (ERBB4): 100%
remaining binding at 10 µM (ERK3): 97%
remaining binding at 10 µM (FLT3(D835H)): 92%
remaining binding at 10 µM (GRK3): 35%
remaining binding at 10 µM (HASPIN): 85%
remaining binding at 10 µM [4]: 88%
remaining binding at 10 µM (JNK1): 62%
remaining binding at 10 µM (KIT(V559D,V654A)): 73%
remaining binding at 10 µM (LKB1): 93%
remaining binding at 10 µM (MAP3K4): 93%
remaining binding at 10 µM (MEK3): 61%
remaining binding at 10 µM (MRCKB): 100%
remaining binding at 10 µM (MTOR): 68%
remaining binding at 10 µM (MYLK4): 92%
remaining binding at 10 µM (NEK3): 69%
remaining binding at 10 µM (PAK4): 92%
remaining binding at 10 µM (PCTK2): 95%
remaining binding at 10 µM (PIK3C2B): 100%
remaining binding at 10 µM (PIP5K2C): 85%
remaining binding at 10 µM (PKAC-beta): 95%
remaining binding at 10 µM (PLK1): 85%
remaining binding at 10 µM (RET(V804M)): 95%
remaining binding at 10 µM (RIPK2): 89%
remaining binding at 10 µM (SLK): 93%
remaining binding at 10 µM (TIE1): 85%
remaining binding at 10 µM (ULK1): 82%
remaining binding at 10 µM (WNK1): 100%
remaining binding at 10 µM (WNK2): 87%
inhibitory activity in screen of 468 kinases (468 human kinases; 10 μM): did not exhibit off-target inhibition; also recorded: did not have significant inhibitory activity
Number of Hits S(1) (468 human kinases; [5]): 1
Number of Hits S(10) (468 human kinases; [5]): 2
Number of Hits S(35) (468 human kinases; [5]): 2
